Measurements published in patent US20170008888A1 (KYORIN PHARMACEUTICAL CO., LTD., priority 2014, published 2017).

What was measured:
Format in all cases: binding
[1] = biological target: T1, ERK5 (Homo sapiens, UniProt Q13164); experiment: Probe-based (AX9989 acyl phosphate ATP probe) kinase profiling in Jurkat lysate: ERK5; conditions: for IC50: calculated from percent inhibition and screening concentration, Jurkat lysate, AX9989 probe; for inhibition at 10 µM: screening concentration 10 μM
T1 construct: screened for activity against several kinases in Jurkat cells; endogenous in cells; host or cells: Jurkat cell lysate
Procedure: (§1) In this example, potency of the compounds as ERK5 inhibitors was assessed, and the compounds were screened for activity against several kinases in Jurkat cells.
(§2) Jurkat cell pellets were resuspended in four volumes of lysis buffer (50 mM HEPES pH 7.5, 150 mM NaCl, 0.1% Triton-X-100, 1% v/v phosphatase, inhibitor cocktail II [EMD/Calbiochem, #524625]), sonicated using a tip, sonicator, and Dounce homogenized. Lysate was cleared by centrifugation, at 16,000 g for 15 min., was gel filtered (BioRad 10DG) and MnCl2 was then added to a final concentration of 20 mM before treatment with the test compound and probe labeling. […] All compound treatments were performed at room temperature.
(§3) Acyl phosphate ATP probe (AX9989) labeling reactions were performed at room temperature with a final probe concentration of 5 μM after a 15 min pre-incubation of lysate with a test compound. All reactions were performed in duplicate, using 445 μl/sample at 5 mg/ml. Probe-labeled lysates were denatured and reduced (6 M urea, 10 mM DTT, 65° C., 15 min), alkylated (40 mM iodoacetamide, 37° C., 30 min, and gel filtered (Sephadex G25) into 10 mM ammonium bicarbonate, 2 M urea, 5 mM methionine. The desalted protein mixture was digested with trypsin (0.015 mg/ml) for 1 hr at 37° C., and desthiobiotinylated peptides were captured using a […] high-capacity streptavidin resin (Thermo Scientific). Captured peptides were then washed extensively using 150 μl/wash with three different wash buffers: (A) 3 times with 1% triton, 0.5% tergitol, 1 mM EDTA in PBS; (B) 18 times with PBS; and (C) 8 times with HPLC grade water. Peptides were eluted from the streptavidin beads using two 35-μL washes of a 50% CH3CN/water mixture containing 0.1% TFA at room temperature.
(§4) Kinase active site peptides were identified and quantified using LC/MS. Percent inhibition was calculated as the normalized decrease in the ESI-MS fragment intensities of probe-labeled peptides in samples incubated with the test compound compared to those without.
ERK5 IC50 values were calculated from the percent inhibition and the screening concentration.

[2] = biological target: T2, ACK (Homo sapiens, UniProt Q07912); experiment: Probe-based (AX9989) kinase profiling in Jurkat lysate: ACK; conditions: read-out: ACK Inhibition % at indicated screening concentration; for inhibition at 10 µM: screening concentration 10 μM
T2 construct: screened for activity against several kinases in Jurkat cells; endogenous in cells; host or cells: Jurkat cell lysate
Procedure: as §1, §2, §3, §4

[3] = biological target: T3, AurA (Homo sapiens, UniProt O14965); experiment: Probe-based (AX9989) kinase profiling in Jurkat lysate: AurA; conditions: read-out: AurA Inhibition % at indicated screening concentration; for inhibition at 10 µM: screening concentration 10 μM
T3 construct: screened for activity against several kinases in Jurkat cells; endogenous in cells; host or cells: Jurkat cell lysate
T3 sequence (O14965 1-403): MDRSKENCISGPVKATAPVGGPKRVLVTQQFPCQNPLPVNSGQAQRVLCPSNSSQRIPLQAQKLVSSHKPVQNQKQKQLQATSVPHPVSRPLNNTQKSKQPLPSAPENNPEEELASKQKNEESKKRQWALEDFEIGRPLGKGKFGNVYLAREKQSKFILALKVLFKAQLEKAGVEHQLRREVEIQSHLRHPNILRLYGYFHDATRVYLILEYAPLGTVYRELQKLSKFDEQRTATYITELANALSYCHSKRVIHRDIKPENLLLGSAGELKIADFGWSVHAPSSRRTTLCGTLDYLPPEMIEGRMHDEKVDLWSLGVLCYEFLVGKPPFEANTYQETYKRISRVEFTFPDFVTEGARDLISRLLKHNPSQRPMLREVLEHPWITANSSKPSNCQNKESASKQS
Procedure: as §1, §2, §3, §4

[4] = biological target: T4, JAK1 (Homo sapiens, UniProt P23458); experiment: Probe-based (AX9989) kinase profiling in Jurkat lysate: JAK1; conditions: read-out: JAK1 Inhibition % at indicated screening concentration; for inhibition at 10 µM: screening concentration 10 μM
T4 construct: screened for activity against several kinases in Jurkat cells; endogenous in cells; host or cells: Jurkat cell lysate
Procedure: as §1, §2, §3, §4

[5] = biological target: T5, TAO2 (Homo sapiens, UniProt Q9UL54); experiment: Probe-based (AX9989) kinase profiling in Jurkat lysate: TAO2; conditions: read-out: TAO2 Inhibition % at indicated screening concentration; for inhibition at 10 µM: screening concentration 10 μM
T5 construct: screened for activity against several kinases in Jurkat cells; endogenous in cells; host or cells: Jurkat cell lysate
T5 sequence (Q9UL54 1-1235): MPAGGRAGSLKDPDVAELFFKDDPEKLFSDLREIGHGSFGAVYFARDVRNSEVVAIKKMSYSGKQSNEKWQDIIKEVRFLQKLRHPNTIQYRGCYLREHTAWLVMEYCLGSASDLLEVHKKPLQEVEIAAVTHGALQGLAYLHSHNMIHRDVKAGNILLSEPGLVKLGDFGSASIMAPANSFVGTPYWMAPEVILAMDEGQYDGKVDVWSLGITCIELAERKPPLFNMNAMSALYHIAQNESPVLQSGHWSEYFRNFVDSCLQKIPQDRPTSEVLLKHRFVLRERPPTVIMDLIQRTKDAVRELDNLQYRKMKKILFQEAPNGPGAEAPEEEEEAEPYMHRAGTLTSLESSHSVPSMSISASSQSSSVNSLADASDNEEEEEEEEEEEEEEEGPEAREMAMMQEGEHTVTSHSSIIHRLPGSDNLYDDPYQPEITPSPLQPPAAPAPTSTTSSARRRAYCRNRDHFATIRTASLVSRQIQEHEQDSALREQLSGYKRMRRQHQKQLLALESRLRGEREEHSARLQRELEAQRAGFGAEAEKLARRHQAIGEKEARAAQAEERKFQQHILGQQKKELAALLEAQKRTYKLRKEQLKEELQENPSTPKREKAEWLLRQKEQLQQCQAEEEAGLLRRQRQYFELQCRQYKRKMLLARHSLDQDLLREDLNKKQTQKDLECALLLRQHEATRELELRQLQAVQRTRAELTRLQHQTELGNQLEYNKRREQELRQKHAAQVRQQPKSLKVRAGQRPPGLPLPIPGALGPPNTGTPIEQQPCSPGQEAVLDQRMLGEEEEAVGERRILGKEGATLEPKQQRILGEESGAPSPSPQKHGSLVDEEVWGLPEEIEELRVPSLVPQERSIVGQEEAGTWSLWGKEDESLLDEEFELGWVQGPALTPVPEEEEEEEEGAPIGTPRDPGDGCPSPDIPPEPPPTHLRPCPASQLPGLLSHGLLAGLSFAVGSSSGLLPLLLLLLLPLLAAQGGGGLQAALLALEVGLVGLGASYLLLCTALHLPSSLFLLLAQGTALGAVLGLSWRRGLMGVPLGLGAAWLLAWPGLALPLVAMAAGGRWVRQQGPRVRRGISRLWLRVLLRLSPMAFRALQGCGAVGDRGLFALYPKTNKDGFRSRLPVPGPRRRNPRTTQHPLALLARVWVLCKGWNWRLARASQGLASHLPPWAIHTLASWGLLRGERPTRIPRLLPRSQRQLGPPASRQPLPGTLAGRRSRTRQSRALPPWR
Procedure: as §1, §2, §3, §4

[6] = system: AurB or AurC; experiment: Probe-based (AX9989) kinase profiling in Jurkat lysate: AurB or AurC
Procedure: as §1, §2, §3, §4

[7] = system: AMPKa1 or AMPKa2; experiment: Probe-based (AX9989) kinase profiling in Jurkat lysate: AMPKa1 or AMPKa2
Procedure: as §1, §2, §3, §4

[8] = system: ABL or ARG; experiment: Probe-based (AX9989) kinase profiling in Jurkat lysate: ABL or ARG
Procedure: as §1, §2, §3, §4

[9] = read-out: ERK5 Inhibition % at indicated screening concentration

T2 sequence (Q07912 whole entry): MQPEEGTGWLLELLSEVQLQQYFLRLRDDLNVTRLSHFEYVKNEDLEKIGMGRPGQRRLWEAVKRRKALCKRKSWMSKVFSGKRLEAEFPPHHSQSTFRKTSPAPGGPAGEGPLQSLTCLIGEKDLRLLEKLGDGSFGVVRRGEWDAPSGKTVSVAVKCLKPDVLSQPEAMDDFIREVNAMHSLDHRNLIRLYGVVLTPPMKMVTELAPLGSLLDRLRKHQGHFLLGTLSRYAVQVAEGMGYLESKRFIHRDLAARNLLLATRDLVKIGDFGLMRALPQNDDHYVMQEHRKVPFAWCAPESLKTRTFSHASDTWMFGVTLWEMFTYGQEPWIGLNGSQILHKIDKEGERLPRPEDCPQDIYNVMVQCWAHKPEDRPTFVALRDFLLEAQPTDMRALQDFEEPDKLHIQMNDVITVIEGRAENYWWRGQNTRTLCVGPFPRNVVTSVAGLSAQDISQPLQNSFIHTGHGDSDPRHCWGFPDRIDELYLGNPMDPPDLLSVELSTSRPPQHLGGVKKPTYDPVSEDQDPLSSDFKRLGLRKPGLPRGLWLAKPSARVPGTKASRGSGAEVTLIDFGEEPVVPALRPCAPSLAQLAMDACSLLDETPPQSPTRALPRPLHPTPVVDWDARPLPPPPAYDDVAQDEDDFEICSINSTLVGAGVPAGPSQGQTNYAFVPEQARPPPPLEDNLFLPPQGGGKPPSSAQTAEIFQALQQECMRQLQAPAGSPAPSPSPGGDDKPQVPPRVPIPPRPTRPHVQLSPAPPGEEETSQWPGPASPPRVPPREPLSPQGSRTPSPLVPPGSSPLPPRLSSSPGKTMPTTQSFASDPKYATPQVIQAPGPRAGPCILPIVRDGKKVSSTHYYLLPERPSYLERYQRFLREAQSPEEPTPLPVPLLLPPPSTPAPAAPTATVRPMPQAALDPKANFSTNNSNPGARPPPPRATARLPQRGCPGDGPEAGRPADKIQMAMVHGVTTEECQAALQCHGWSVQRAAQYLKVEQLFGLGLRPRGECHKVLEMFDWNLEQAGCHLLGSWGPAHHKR
T1 sequence (Q13164 whole entry): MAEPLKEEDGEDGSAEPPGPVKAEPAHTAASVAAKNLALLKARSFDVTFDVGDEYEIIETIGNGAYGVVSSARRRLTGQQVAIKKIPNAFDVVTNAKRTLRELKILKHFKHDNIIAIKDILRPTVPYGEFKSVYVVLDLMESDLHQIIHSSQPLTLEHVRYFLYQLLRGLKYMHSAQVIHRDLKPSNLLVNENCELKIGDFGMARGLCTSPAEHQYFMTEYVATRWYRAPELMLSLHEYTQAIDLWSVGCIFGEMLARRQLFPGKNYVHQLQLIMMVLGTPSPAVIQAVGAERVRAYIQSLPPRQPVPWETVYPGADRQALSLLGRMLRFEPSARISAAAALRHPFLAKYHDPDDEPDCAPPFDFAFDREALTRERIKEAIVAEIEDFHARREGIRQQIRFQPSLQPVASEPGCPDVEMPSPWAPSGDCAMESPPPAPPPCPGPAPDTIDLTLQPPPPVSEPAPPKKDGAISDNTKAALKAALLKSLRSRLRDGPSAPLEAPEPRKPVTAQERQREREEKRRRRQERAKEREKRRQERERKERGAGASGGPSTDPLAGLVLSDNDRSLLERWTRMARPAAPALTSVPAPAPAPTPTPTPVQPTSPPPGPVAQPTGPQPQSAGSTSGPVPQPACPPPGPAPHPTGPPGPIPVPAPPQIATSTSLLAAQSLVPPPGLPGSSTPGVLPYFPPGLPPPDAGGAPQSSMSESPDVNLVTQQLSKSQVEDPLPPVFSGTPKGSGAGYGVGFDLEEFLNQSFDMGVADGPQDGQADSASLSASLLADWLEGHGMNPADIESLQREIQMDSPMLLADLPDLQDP
T4 sequence (P23458 whole entry): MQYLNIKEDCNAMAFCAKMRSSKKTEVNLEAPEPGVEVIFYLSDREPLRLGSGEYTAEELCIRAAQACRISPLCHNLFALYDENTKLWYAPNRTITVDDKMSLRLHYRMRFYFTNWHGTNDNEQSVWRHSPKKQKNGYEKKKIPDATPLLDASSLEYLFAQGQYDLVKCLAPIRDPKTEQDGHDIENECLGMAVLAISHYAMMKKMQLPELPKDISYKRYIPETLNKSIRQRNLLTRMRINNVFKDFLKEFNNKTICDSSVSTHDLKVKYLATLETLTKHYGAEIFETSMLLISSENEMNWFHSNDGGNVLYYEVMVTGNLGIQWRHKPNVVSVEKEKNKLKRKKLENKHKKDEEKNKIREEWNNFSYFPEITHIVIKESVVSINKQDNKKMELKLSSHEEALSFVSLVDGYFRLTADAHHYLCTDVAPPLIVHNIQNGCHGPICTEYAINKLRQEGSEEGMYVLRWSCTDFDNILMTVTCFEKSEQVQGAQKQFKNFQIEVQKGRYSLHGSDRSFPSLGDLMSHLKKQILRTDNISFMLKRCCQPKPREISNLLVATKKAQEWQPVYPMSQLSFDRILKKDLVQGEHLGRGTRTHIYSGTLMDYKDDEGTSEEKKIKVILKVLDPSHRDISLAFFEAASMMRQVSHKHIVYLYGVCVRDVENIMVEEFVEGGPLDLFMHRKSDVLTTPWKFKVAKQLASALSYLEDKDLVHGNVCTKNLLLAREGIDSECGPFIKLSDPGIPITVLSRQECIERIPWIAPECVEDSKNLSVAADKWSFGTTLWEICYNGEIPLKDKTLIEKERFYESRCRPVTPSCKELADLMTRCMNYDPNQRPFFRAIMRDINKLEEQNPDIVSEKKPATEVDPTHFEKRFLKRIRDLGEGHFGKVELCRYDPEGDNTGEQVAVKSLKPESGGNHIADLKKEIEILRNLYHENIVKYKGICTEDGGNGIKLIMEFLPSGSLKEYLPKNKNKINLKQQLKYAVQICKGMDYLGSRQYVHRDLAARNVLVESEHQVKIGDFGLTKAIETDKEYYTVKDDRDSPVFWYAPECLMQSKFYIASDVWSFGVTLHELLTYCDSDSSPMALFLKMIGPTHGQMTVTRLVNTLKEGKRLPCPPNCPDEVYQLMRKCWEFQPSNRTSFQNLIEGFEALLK

Row | IC50 [1] [µM] | inhibition at 10 µM [1, 9] [%] | inhibition at 10 µM [2] [%] | inhibition at 10 µM [3] [%] | inhibition at 10 µM [4] [%] | inhibition at 10 µM [5] [%] | AurB or AurC Inhibition % at indicated screening concentration ([6]; screening concentration 10 μM) | AMPKa1 or AMPKa2 Inhibition % at indicated screening concentration ([7]; screening concentration 10 μM) | ABL or ARG Inhibition % at indicated screening concentration ([8]; screening concentration 10 μM) | inhibition at 1 µM ([1]; screening concentration 1 μM, read-out: ERK5 Inhibition % at indicated screening concentration) [%] | inhibition at 1 µM ([2]; screening concentration 1 μM) [%] | inhibition at 1 µM ([3]; screening concentration 1 μM) [%] | inhibition at 1 µM ([4]; screening concentration 1 μM) [%] | inhibition at 1 µM ([5]; screening concentration 1 μM) [%] | AurB or AurC Inhibition % at indicated screening concentration ([6]; screening concentration 1 μM) | AMPKa1 or AMPKa2 Inhibition % at indicated screening concentration ([7]; screening concentration 1 μM) | ABL or ARG Inhibition % at indicated screening concentration ([8]; screening concentration 1 μM) | SMILES
1 | > 0.5 | ≤ 35 | ≤ 35 | ≤ 35 | ≤ 35 | ≤ 35 | E (E is ≦35%) | E (E is ≦35%) | E (E is ≦35%) | – | – | – | – | – | – | – | – | CCOc1cc(C(=O)O)ccc1Nc1cc2c(cn1)N(C)S(=O)(=O)c1ccccc1N2C [Compound T1]
2 | > 0.5 | 75 to 90 | ≤ 35 | ≤ 35 | ≤ 35 | ≤ 35 | E (E is ≦35%) | E (E is ≦35%) | E (E is ≦35%) | – | – | – | – | – | – | – | – | CCOc1cc(C(=O)N2CCOCC2)ccc1Nc1cc2c(cn1)N(C)C(=O)c1ccccc1[S+]2[O-] (stereo not drawn) [Compound T83, 3-((2-ethoxy-4-(morpholine-4-carbonyl)phenyl)amino)-11-methylbenzo[f]pyrido[4,3-b][1,4]thiazepin-10(11H)-one 5-oxide]
3 | > 0.5 | – | – | – | – | – | – | – | – | 35 to 50 | ≤ 35 | ≤ 35 | ≤ 35 | ≤ 35 | E (E is ≦35%) | E (E is ≦35%) | E (E is ≦35%) | CN1C(=O)c2ccccc2N(S(C)(=O)=O)c2cc(N[C@H]3CC[C@H](O)CC3)ncc21 [Compound T86, 3-(((1r,4r)-4-hydroxycyclohexyl)amino)-11-methyl-5-(methylsulfonyl)-5H-benzo[e]pyrido[3,4-b][1,4]diazepin-10(11H)-one]
4 | > 0.5 | 35 to 50 | ≤ 35 | ≤ 35 | ≤ 35 | ≤ 35 | E (E is ≦35%) | E (E is ≦35%) | E (E is ≦35%) | – | – | – | – | – | – | – | – | CCOc1cc(C(=O)N2CCC(N3CCCC3)CC2)ccc1Nc1cc2c(cn1)N(C)S(=O)(=O)c1ccccc1N2C [Compound T2]
